This note sets out measurements from US5801270A, “Amine derivative and detergent composition containing the same” (Kao Corporation, priority 1993, dated 1998).

Data set [1] is described as follows: Irritativeness and feeling of the compound on the user's skin and hair. The following applies: in words.
A short description of data set [2]: Cytotoxic effect on SIRC cells (Giemsa stain, 48 hours). The class given is cell-based, rabbit. The following applies: rabbit, 48 hours culture, 655 nm, read-out: IC50. As to the method: (§1) The cytotoxic effect of the compounds according to the present invention was tested in accordance with the following method.
(§2) Four days prior to exposure to a substance to be tested, SIRC cells (established cell line of fibroblasts in the epithelial parenchymal layer of a rabbit eye) were disseminated on a 96-well plate in a concentration of 3×10^3 cells/well to culture them under conditions of 37° C. and 5% CO2.
(§3) The test substance was dissolved in physiological saline to give a concentration of 1 wt. % or 10 wt. %. This solution was diluted with a culture medium. After the thus-obtained test solution was added to the culture solution to conduct culture for 48 hours, the culture solution was washed twice with PBS (pH 7.4) and fixed in methanol to stain with a Giemsa stain. After washing and drying, a mixture of 1N HCl/ethanol (1/9) was added to extract the stained solution, followed by measurement by means of a microplate reader (655 nm). The concentration at which […] was expressed as IC50 (ppm).

The test system of the next data set is SIRC cells. Described as above. The format is cell-based, rabbit. The following applies: 48 hours culture, 655 nm. As for the experimental part: as §1, §2, §3

Regarding `CCCCCCCCN(CC(O)CN(CCCCCCCC)C(=O)CCC(=O)[O-])CC(O)CN(CCCCCCCC)C(=O)CCC(=O)[O-].[Na+].[Na+]` (stereo not drawn), the irritativeness result in data set [1] is listed as “low”.

Take `CCCCCCCCN(CC(O)CN(CCCCCCCC)C(=O)CC(C(=O)O)S(=O)(=O)[O-])CC(O)CN(CCCCCCCC)C(=O)CC(C(=O)O)S(=O)(=O)[O-].[Na+].[Na+]` (stereo not drawn): in data set [1], the irritativeness entry is listed as “low”.

Take “6-butyl-4,8-dihydroxy-2,10-dioctyl-2,6,10-triaza-1,1,11,11-undecanetetracarboxylic acid [Example 12]”: the irritativeness entry in data set [1] is reported as “low”.

Turning to `CCCCCCCCN(CC(=O)O)CC(O)CN(CCCC)CC(O)CN(CCCCCCCC)CC(=O)O` (stereo not drawn) [Example 8, 6-butyl-4,8-dihydroxy-2,10-dioctyl-2,6,10-triaza-1,11-undecanedicarboxylicacid], in data set [1], the irritativeness result is on record as “low”.

For the molecule `CCCCCCCCCCCCN(CCOS(=O)(=O)O)CC(CN(CCCCCCCCCCCC)CC(CN(CCCCCCCCCCCC)CCOS(=O)(=O)O)OS(=O)(=O)O)OS(=O)(=O)O` (stereo not drawn) [Example 10, sodium 3,7,11-tridodecyl-3,7,11-triaza-1,5,9,13-tridecanetetrasulfate], in data set [2], the CC50 at 48 h amounted to 790 µg/mL. Besides, the irritativeness entry in data set [1] is on record as “low”.

`CCCCCCCCCCCCN(CCOS(=O)(=O)O)CC(CN(CCCCCCCCCCCC)CC(CN(CCCCCCCCCCCC)CC(CN(CCCCCCCCCCCC)CC(CN(CCCCCCCCCCCC)CCOS(=O)(=O)O)OS(=O)(=O)O)OS(=O)(=O)O)OS(=O)(=O)O)OS(=O)(=O)O` (stereo not drawn) [Example 11, sodium 3,7,11,15,19-pentadodecyl-3,7,11,15,19-pentaaza-1,5,9,13,17,21-heneicosanehexasulfate]: the IC50 in the data set on SIRC cells is given as more than 1000 ppm. For the same molecule, the irritativeness entry in data set [1] is “low”.

Regarding `CCCCCCCCCCCCOS(=O)(=O)[O-].[Na+]` [Sodium dodecyl sulfate, reference compound], in data set [2], the CC50 at 48 h worked out at 82 µg/mL.
